In PMC9994261 (Cell, 2023):
Converted amounts (≈) assume the structure as drawn. Where two headings read alike, the source gives them in different places.

How the values were obtained:
[1] = format: in vitro ADME
[2] = in vivo; details: male, Swiss, mouse, po; for AUC: 30 mg/kg, oral 30 mg/kg
[3] = test system: GFP-expressing Mtb H37Rv in RAW264.7 macrophages; experiment: Intramacrophage assay (MIC for Mtb in macrophages); format: cell-based, Mycobacterium tuberculosis; details: Mycobacterium tuberculosis, H37RV; read-out: MIC for Mtb tuberculosis in macrophages
[4] = pH 2, 50% acetonitrile/water
[5] = physchem; format: physicochemical
[6] = target: T1, CYP3A4 (Homo sapiens, UniProt P08684); experiment: CYP3A4 reversible inhibition in human liver microsomes; format: in vitro ADME
T1 construct: human liver microsomes (purchased from BD Gentest as a pooled batch from 150 donors); tissue BD Gentest Cat#452117; host or cells: pooled human liver microsomes (150 donors)
Procedure: Incubations were performed with 0.1 mg/mL human liver microsomes (purchased from BD Gentest as a pooled batch from 150 donors) in a final incubation volume of 0.25 mL. The incubation medium contained 0.05 M phosphate buffer (pH 7.4) containing an NADPH regenerating system (including 1.3 mM NADP, 3.3 mM glucose 6-phosphate,3.3 mM MgCl2, and 1.0 U/mL glucose 6-phosphate dehydrogenase). Probe CYP3A4 substrates (midazolam at 3 μM and testosterone at 50 μM), were incubated for 10 and 30 min, respectively, with increasing concentrations of GM, MGM or CGM (concentration range: 1 - 30 μM). The reaction was stopped by adding acetonitrile to precipitate the proteins. The incubation mixtures were then centrifuged for 5 min at 10,000 × g, and an aliquot of the supernatant was analyzed using high-performance liquid chromatography coupled to mass spectrometry for the assessment of 1’-hydroxymidazolam and 6β-hydroxytestosterone metabolite formation.

[7] = test system: Mtb methylated ribosome; experiment: Mtb in vitro translation assay with methylated (erythromycin-treated) ribosome; format: biochemical, Mycobacterium tuberculosis
[8] = format: in vitro ADME; remark: listed apart in the source
[9] = test system: Mtb H37Rv; experiment: microbe, parasite or virus in culture; format: cell-based, Mycobacterium tuberculosis; details: Mycobacterium tuberculosis, H37RV; read-out: MIC for Mtb in liquid culture
[10] = physchem; details: pH 7.4
[11] = in vitro; format: in vitro ADME; details: human, Caco-2; read-out: Permeability in Caco2 cells (Papp)
[12] = format: in vitro ADME; remark: listed apart in the source
[13] = format: in vitro ADME, human; details: for Metabolic stability in human liver microsomes (% metabolized compound after 20 min): 20 min incubation; for Metabolic stability in human liver microsomes (% metabolized compound after 20 min), (K): in presence of ketoconazole CYP3A inhibitor (K); for Metabolic stability in human liver microsomes (% metabolized compound after 20 min), (Q): in presence of quinidine CYP2D6 inhibitor (Q)
Procedure: The metabolic stability of test compounds was determined as described.[57]^,[58] Incubation and experimental conditions with human hepatic microsomal fractions (purchased from BD Gentest as a pooled batch from 6 donors) were as follows: microsomal proteins, 1 mg/mL; bovine serum albumin, 1 mg/mL; substrate, 5 μM; incubation duration, 20 min; cytochrome P-450 monooxygenases (CYPs) and flavin containing monooxygenases (FMOs) cofactor, 1 mM NADPH. Enzyme activity was stopped with 1 volume of acetonitrile. […] For each test compound and for each microsomal preparation, three incubations were prepared: absolute reference in buffer (without enzyme material, i.e., microsomes); incubation without NADPH cofactor (with microsomal fractions); and incubation with NADPH (with microsomal fractions). For most compounds, biotransformation, as observed in hepatic microsomal fractions in the presence of the NADPH cofactor, consists of oxidative reactions catalyzed by either CYPs or FMOs. In these conditions, the percentage of total metabolism, which corresponds to oxidative metabolism, was determined as follows: [% total metabolism] ≈ [% oxidative metabolism] = [unchanged compound (UC) peak area − NADPH UC peak area + NADPH] × 100%, where NADPH corresponds to the enzyme cofactor for oxidation reactions catalyzed by either CYP or FMO.

[14] = test system: Mtb ribosome; format: biochemical, Mycobacterium tuberculosis
[15] = test system: Mtb H37Rv; experiment: Combination study in mouse model of TB; format: in vivo; details: mouse, in vivo
[16] = test system: Mtb H37Rv; experiment: MIC80 after overnight pre-incubation of Mtb with subinhibitory macrolide; format: cell-based; details: Mycobacterium tuberculosis
[17] = test system: M. bovis BCG Pasteur; experiment: microbe, parasite or virus in culture; format: cell-based, Mycobacterium bovis
[18] = aqueous buffer, PBS pH 7.4, read-out: Solubility: PBS@pH 7.4
[19] = read-out: Translation inhibition of Mtb methylated ribosome (IC50 μM)
[20] = read-out: Inhibition of Mtb translation (IC50 μM)
[21] = methylated ribosome, read-out: IC50 methylated ribosome
[22] = non-methylated ribosome, read-out: IC50 ribosome

T1 sequence (P08684 whole entry): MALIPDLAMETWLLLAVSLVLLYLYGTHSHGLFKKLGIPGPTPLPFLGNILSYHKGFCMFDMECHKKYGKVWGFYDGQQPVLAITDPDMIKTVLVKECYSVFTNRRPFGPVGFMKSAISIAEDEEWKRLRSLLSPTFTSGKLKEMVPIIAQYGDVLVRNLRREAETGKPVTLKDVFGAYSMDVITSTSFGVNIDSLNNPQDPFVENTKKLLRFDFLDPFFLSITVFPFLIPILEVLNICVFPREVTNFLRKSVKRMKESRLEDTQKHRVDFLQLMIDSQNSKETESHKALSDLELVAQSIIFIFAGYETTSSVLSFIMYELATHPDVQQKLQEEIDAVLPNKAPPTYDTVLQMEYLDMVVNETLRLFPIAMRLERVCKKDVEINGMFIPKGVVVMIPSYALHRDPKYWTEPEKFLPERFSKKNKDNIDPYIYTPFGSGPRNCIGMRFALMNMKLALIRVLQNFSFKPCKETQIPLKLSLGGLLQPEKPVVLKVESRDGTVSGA

CO/N=C1\C[C@@H](C)O[C@@H](O[C@@H]2[C@@H](C)[C@H](O[C@H]3C[C@@](C)(O)[C@@H](O)[C@H](C)O3)[C@@H](C)C(=O)O[C@H]([C@@H](C)CO[C@@H]3O[C@H](C)[C@@H](O)[C@@H](OC)[C@H]3OC)[C@H](C)[C@@H](OC(=O)CC(C)C)[C@@H](C)C(=O)[C@@](C)(OC(=O)NCc3ccccc3)C[C@@H]2C)[C@@H]1O [SEQ-416, [(2R,3S,4R,5R,7S,9S,10S,11R,12S,13R)-7-(benzylcarbamoyloxy)-12-[(2R,4R,5S,6S)-4,5-dihydroxy-4,6-dimethyl-tetrahydropyran-2-yl]oxy-2-[(1S)-2-[(2R,3R,4R,5R,6R)-5-hydroxy-3,4-dimethoxy-6-methyl-tetrahydropyran-2-yl]oxy-1-methyl-ethyl]-10-[(2S,3R,4E,6R)-3-hydroxy-4-methoxyimino-6-methyl-tetrahydropyran-2-yl]oxy-3,5,7,9,11,13-hexamethyl-6,14-dioxo-oxacyclotetradec-4-yl] 3-methylbutanoate]
Metabolic stability in mouse liver microsomes (% metabolized compound after 20 min) [1]: 25%
bioavailability [2]: 21%
AUC ([2]; AUC in lung @30 mg/kg, lung): 4.8 µg·h/mL
AUC ([2]; AUC in plasma @30 mg/kg, plasma): 4 µg·h/mL
MIC [3]: 0.63 µM (≈ 0.709 µg/mL)
Chemical stability: t/12@pH 2 [4]: ∼6 h
solubility ([5]; MCT pH 7.4, read-out: Solubility: MCT@pH 7.4): 0.599 mg/mL (≈ 532 µM)
solubility [5, 18]: 0.022 mg/mL (≈ 19.5 µM)
IC50 ([6]; midazolam, read-out: CYP3A4 inhibition, IC50 with midazolam as substrate): 3 µM
IC50 ([6]; testosterone, read-out: CYP3A4 inhibition, IC50 with testosterone as substrate (T)): 10 µM
IC50 [7, 19]: 0.031 µM
Metabolic degradation/clearance from human liver microsomes [8]: 0.057 mL/h/10^6 hepatocytes
MIC [9]: 0.15 µM (≈ 0.169 µg/mL)
logD [10]: 4.5
Papp [11]: 104 nm/s
Metabolic stability in rat liver microsomes (% metabolized compound after 20 min) [12]: 22%
Metabolic stability in human liver microsomes (% metabolized compound after 20 min) [13]: 40%
Metabolic stability in human liver microsomes (% metabolized compound after 20 min), (K) [13]: 0.5(K) %
Metabolic stability in human liver microsomes (% metabolized compound after 20 min), (Q) [13]: /35(Q) %
IC50 [14, 20]: 0.044 µM

O=[N+]([O-])c1cn2c(n1)OC[C@@H](OCc1ccc(OC(F)(F)F)cc1)C2 [Pa, Pretomanid]
Mean ± SD lung CFU counts, Week 4 [15]: 5.83 ± 0.12

CC(=O)NC[C@H]1CN(c2ccc(N3CCOCC3)c(F)c2)C(=O)O1 [Linezolid]
MIC80 [16]: 1 µM (≈ 0.337 µg/mL)
Mean ± SD lung CFU counts, Week 4 [15]: 6.86 ± 0.08

COc1nc2ccc(Br)cc2cc1[C@@H](c1ccccc1)[C@@](O)(CCN(C)C)c1cccc2ccccc12 [BDQ, Bedaquiline]
Mean ± SD lung CFU counts, Week 4 [15]: 2.96 ± 0.19

COC1C(OCC(C)C2OC(=O)C(C)C(OC3CC(C)(O)C(O)C(C)O3)C(C)C(OC3OC(C)CC(=O)C3O)C(C)CC(C)(O)C(=O)C(C)C(OC(=O)CC(C)C)C2C)OC(C)C(O)C1OC [SEQ-503, (3S,4S,5R,7S,9S,10S,11R,12S,13R)-12-[(4,5-dihydroxy-4,6-dimethyltetrahydro-2H-pyran2-yl)oxy]-7-hydroxy-2-{1-[(5-hydroxy-3,4-dimethoxy-6-methyltetrahydro-2H-pyran-2-yl)oxy]propan-2-yl}-10-[(3-hydroxy-6-methyl-4-oxotetrahydro-2H-pyran-2-yl)oxy]-3,5,7,9,11,13-hexamethyl-6,14-dioxooxacyclotetradecan-4-yl) 3-methylbutanoate]
Metabolic stability in mouse liver microsomes (% metabolized compound after 20 min) [1]: 0/ND %
bioavailability [2]: 22%
MIC [3]: 2.5 µM (≈ 2.41 µg/mL)
solubility [5, 18]: 0.522 mg/mL (≈ 542 µM)
IC50 ([6]; substrate not stated, read-out: CYP3A4 inhibition): > 10 µM
IC50 [7, 19]: 0.022 µM
MIC [9]: 1.4 µM (≈ 1.35 µg/mL)
Papp [11]: 0.7 nm/s
Metabolic stability in human liver microsomes (% metabolized compound after 20 min) [13]: 67%
Metabolic stability in human liver microsomes (% metabolized compound after 20 min), (K) [13]: 4(K) %
Metabolic stability in human liver microsomes (% metabolized compound after 20 min), (Q) [13]: /41(Q) %
IC50 [14, 20]: 0.021 µM

NC(=O)c1cnccn1 [Z, Pyrazinamide]
Mean ± SD lung CFU counts, Week 4 [15]: 5.99 ± 0.19

CC[C@H]1OC(=O)C[C@@H](O)[C@H](C)[C@@H](O[C@@H]2O[C@H](C)[C@@H](O[C@H]3C[C@@](C)(O)[C@@H](O)[C@H](C)O3)[C@H](N(C)C)[C@H]2O)[C@@H](CC=O)C[C@@H](C)C(=O)/C=C/C(C)=C/[C@@H]1CO[C@@H]1O[C@H](C)[C@@H](O)[C@@H](OC)[C@H]1OC [Tylosin, reference compound]
IC50 [7, 21]: 0.377 µM
IC50 [14, 22]: 0.0892 µM

CC[C@H]1OC(=O)[C@H](C)[C@@H](O[C@H]2C[C@@](C)(OC)[C@@H](O)[C@H](C)O2)[C@H](C)[C@@H](O[C@@H]2O[C@H](C)C[C@H](N(C)C)[C@H]2O)[C@](C)(O)C[C@@H](C)C(=O)[C@H](C)[C@@H](O)[C@]1(C)O [Erythromycin, reference compound]
IC50 [7, 21]: 140 µM
MIC [9]: 128 µM (≈ 93.9 µg/mL)
IC50 [14, 22]: 0.671 µM

CC[C@H]1OC(=O)[C@H](C)[C@@H](O[C@H]2C[C@@](C)(OC)[C@@H](O)[C@H](C)O2)[C@H](C)[C@@H](O[C@@H]2O[C@H](C)C[C@H](N(C)C)[C@H]2O)[C@](C)(O)C[C@@H](C)/C(=N\OCOCCOC)[C@H](C)[C@@H](O)[C@]1(C)O [roxithromycin, reference compound]
MIC [9]: 32 µM (≈ 26.8 µg/mL)

CO/N=C1\C[C@@H](C)O[C@@H](O[C@@H]2[C@@H](C)[C@H](O[C@H]3C[C@@](C)(O)[C@@H](O)[C@H](C)O3)[C@@H](C)C(=O)O[C@H]([C@@H](C)CO[C@@H]3O[C@H](C)[C@@H](O)[C@@H](OC)[C@H]3OC)[C@H](C)[C@@H](OC(=O)CC(C)C)[C@@H](C)C(=O)[C@@](C)(OC(=O)NCCNS(=O)(=O)c3ccccc3[N+](=O)[O-])C[C@@H]2C)[C@@H]1O [SEQ-977]
MIC [9]: 0.13 µM (≈ 0.164 µg/mL)
IC50 [14, 20]: 0.034 µM

CC[C@H]1OC(=O)[C@H](C)[C@@H](O[C@H]2C[C@@](C)(OC)[C@@H](O)[C@H](C)O2)[C@H](C)[C@@H](O[C@@H]2O[C@H](C)C[C@H](N(C)C)[C@H]2O)[C@](C)(O)C[C@@H](C)CN(C)[C@H](C)[C@@H](O)[C@]1(C)O [Azithromycin, reference compound]
IC50 [7, 21]: > 100 µM
IC50 [14, 22]: 2.91 µM

CCC[C@@H]1C[C@@H](C(=O)N[C@@H]([C@H]2O[C@H](SC)[C@H](O)[C@@H](O)[C@H]2O)[C@H](C)Cl)N(C)C1 [Clindamycin, reference compound]
IC50 [7, 21]: 42.3 µM
IC50 [14, 22]: 0.08 µM

CON=C1C[C@@H](C)O[C@@H](O[C@@H]2[C@@H](C)[C@H](O[C@H]3C[C@@](C)(O)[C@@H](O)[C@H](C)O3)[C@@H](C)C(=O)O[C@H](C(C)CO[C@@H]3O[C@H](C)[C@@H](O)[C@@H](OC)[C@H]3OC)[C@H](C)[C@@H](OC(=O)CC(C)C)[C@@H](C)C(=O)[C@@](C)(OC(=O)NCCn3c([N+](=O)[O-])cnc3C)C[C@@H]2C)[C@@H]1O (some centres unmarked) [SEQ-569]
MIC [9]: 0.57 µM (≈ 0.677 µg/mL)
IC50 [14, 20]: 0.054 µM

NNC(=O)c1ccncc1 [Isoniazid, reference compound]
Growth inhibition (MIC80) [17]: 0.40 µM
MIC80 ([17]; Mycobacterium tuberculosis variant bovis BCG, BCG, read-out: Growth inhibition (MIC80)): 0.34 µM (≈ 0.0466 µg/mL)
